Source: patent US20240174744A1, “METHODS OF TREATMENT USING PROTEIN BINDERS TO IRHOM2 EPITOPES” (SCIRHOM GMBH, priority 2021, published 2024)

Tested on: PMA-induced release of HB-EGF from PBMCs from patients suffering from rheumatoid arthritis
Assay: ELISA-based HB-EGF release assay, PBMCs from RA-patients
Assay type: cell-based
Settings: Homo sapiens; chimeric antibodies (CHO) 1 μg/ml; Batimastat 10 μM; PMA 25 ng/ml, 6 hours
Procedure: In contrast to Example 35, where the inhibitory effects of the antibodies of the present disclosure on PMA-induced release of endogenous HB-EGF from primary human material obtained from healthy donors using peripheral blood mononuclear cells (PBMCs) were tested, this analysis was conducted to analyze the inhibitory effects of the antibodies of the present disclosure on PMA-induced release of endogenous HB-EGF from primary human material obtained from patients suffering from rheumatoid arthritis (RA-patients).
In brief, on day 1, Nunc black MaxiSorp® 96-well plates (Thermo Fisher Scientific, USA) were coated overnight with 100 μl per well of rat anti-human HB-EGF capture antibody (provided as part of the DuoSet ELISA kit) at 2 μg/ml TBS at 4° C. On day 2, the capture antibody solution was removed and MaxiSorp® plates were blocked with 300 μl per well of TBS, 1% BSA at room temperature for 3 hours. […]
To avoid drying-up, 30 μl TBS were added to each well of the MaxiSorp® plates immediately, followed by the transfer of 70 μl cell-free supernatant per sample. […] Using an infinite M1000 (Tecan Group, Switzerland) microplate reader, the fluorescence of each well was collected at an excitation wavelength of 435 nm and an emission wavelength of 555 nm.

Question: `CNC(=O)[C@H](Cc1ccccc1)NC(=O)[C@H](CC(C)C)[C@H](CSc1cccs1)C(=O)NO` [Batimastat] was tested. Which inhibition at 10 µM did it give?
Answer: 102%
